Measurements as given in patent US12258370B2, “Betulastatin compounds” (Arizona Board of Regents on behalf of Arizona State …, priority 2017, dated 2025).
≈ marks a conversion by molar mass, not a printed value.

How the values were obtained:
Assay type in all cases: cell-based
BXPC-3 (pancreas) = experiment: Sulforhodamine B human cancer cell growth inhibition, BXPC-3; conditions: BXPC-3 pancreas cell line, compounds in DMSO, 48 h; for IC50: Homo sapiens, read-out: Gl50 Growth Inhibition, XPC-3
Procedure: (§1) Cancer Cell Line Procedures. Inhibition of human cancer cell growth was assessed using the standard sulforhodamine B assay of the U.S. National Cancer Institute, as previously described.^15 To begin, cells in a 5% fetal bovine serum/RPMI1640 medium were inoculated in 96-well plates and incubated for 24 h. Next, serial dilutions of the compounds were added. After 48 h, the plates were fixed with trichloroacetic acid, stained with sulforhodamine B, and read with an automated microplate reader.

DU-145 (prostate) = experiment: Sulforhodamine B human cancer cell growth inhibition, DU-145; conditions: DU-145 prostate cell line, compounds in DMSO, 48 h; for IC50: Homo sapiens, read-out: Gl50 Growth Inhibition, DU-145
Procedure: as §1

NCI-H460 (lung) = experiment: Sulforhodamine B human cancer cell growth inhibition, NCI-H460; conditions: NCI-H460 lung cell line, compounds in DMSO, 48 h; for IC50: Homo sapiens, read-out: Gl50 Growth Inhibition, NCI-H460
Procedure: as §1

KM20L2 (colon) = experiment: Sulforhodamine B human cancer cell growth inhibition, KM20L2; conditions: compounds in DMSO, 48 h; for Gl50 Growth Inhibition, KM20L2: KM20L2 colon cell line; for IC50: Homo sapiens, KM-20L2, KM20L2 colon cell line, read-out: Gl50 Growth Inhibition, KM20L2
Procedure: as §1

SF-268 (CNS) = experiment: Sulforhodamine B human cancer cell growth inhibition, SF-268; conditions: SF-268 CNS cell line, compounds in DMSO, 48 h; for IC50: Homo sapiens, read-out: Gl50 Growth Inhibition, SF-268
Procedure: as §1

Human Cancer Cell Lines = experiment: Human cancer cell line panel, overall comparison of growth inhibition; conditions: general statement on Table 1; comparator not stated
Procedure: as §1, with “reader. A growth inhibition of 50% (GI50 or the drug concentration causing a 50% reduction in the net protein increase) was calculated from optical density data with Immunosoft® software.” for “reader.”

MCF-7 (breast) = experiment: Sulforhodamine B human cancer cell growth inhibition, MCF-7; conditions: compounds in DMSO, 48 h; for Gl50 Growth Inhibition, MCF-7: MCF-7 breast cell line; for IC50: Homo sapiens, MCF7, MCF-7 breast cell line, read-out: Gl50 Growth Inhibition, MCF-7
Procedure: as §1

Compound	Gl50 Growth Inhibition, XPC-3 (BXPC-3 (pancreas)) [µg/mL]	Gl50 Growth Inhibition, DU-145 (DU-145 (prostate)) [µg/mL]	Gl50 Growth Inhibition, NCI-H460 (NCI-H460 (lung)) [µg/mL]	Gl50 Growth Inhibition, KM20L2 (KM20L2 (colon)) [µg/mL]	Gl50 Growth Inhibition, SF-268 (SF-268 (CNS)) [µg/mL]	fold increase in cancer cell growth inhibition (Human Cancer Cell Lines)	Gl50 Growth Inhibition, MCF-7 (MCF-7 (breast)) [µg/mL]	IC50 (BXPC-3 (pancreas)) [µg/mL]	IC50 (DU-145 (prostate)) [µg/mL]	IC50 (NCI-H460 (lung)) [µg/mL]	IC50 (KM20L2 (colon)) [µg/mL]	IC50 (SF-268 (CNS)) [µg/mL]	IC50 (MCF-7 (breast)) [µg/mL]
3β-Amino-N-(Dap-Dil-Val-Dov)-betulin [Compound 11b]	2.0	0.40	2.1	0.85	0.40	~10 fold	0.70	–	–	–	–	–	–
C=C(C)[C@@H]1CC[C@]2(COC(C)=O)CC[C@]3(C)[C@H](CC[C@@H]4[C@@]5(C)CCC(N)C(C)(C)[C@@H]5CC[C@]43C)[C@@H]12 (single isomer, unassigned) [Compound 9b, 3-α/β-Amino-28-O-acetyl-betulin]	1.1	0.13	0.21	0.35	0.21	~10 fold	0.20	–	–	–	–	–	–
C=C(C)[C@@H]1CC[C@]2(CNC(=O)[C@H](C)[C@@H](OC)C3CCCN3C(=O)C[C@@H](OC)[C@H]([C@@H](C)CC)N(C)C(=O)C(NC(=O)[C@H](C(C)C)N(C)C)C(C)C)CC[C@]3(C)C(CCC4[C@@]5(C)CC[C@H](O)C(C)(C)C5CC[C@]43C)C12 (stereo partly drawn) [Compound 7b, Betulin-28-amino-N-(Dap-Dil-Val-Dov)]	–	–	–	–	–	~10 fold	–	0.6 (≈ 0.587 µM)	0.4 (≈ 0.391 µM)	> 1	0.31 (≈ 0.303 µM)	0.3 (≈ 0.293 µM)	0.4 (≈ 0.391 µM)
C=C(CNC(=O)[C@H](C)[C@@H](OC)C1CCCN1C(=O)C[C@@H](OC)[C@H]([C@@H](C)CC)N(C)C(=O)[C@@H](NC(=O)C(C(C)C)N(C)C)C(C)C)[C@@H]1CC[C@]2(CO)CC[C@]3(C)C(CCC4[C@@]5(C)CC[C@H](O)C(C)(C)[C@@H]5CC[C@]43C)[C@@H]12 (stereo partly drawn) [Compound 16b, 30-N-(Dap-Dil-Val-Dov)-betulin]	–	–	–	–	–	hundred-fold	–	0.4 (≈ 0.385 µM)	0.04 (≈ 0.0385 µM)	0.5 (≈ 0.481 µM)	0.09 (≈ 0.0867 µM)	0.04 (≈ 0.0385 µM)	0.08 (≈ 0.077 µM)
CC[C@H](C)C([C@@H](CC(=O)N1CCCC1[C@H](OC)[C@@H](C)C(=O)NCCN1C(=O)[C@]23CCC(C)(C)C1C2[C@H]1CCC2[C@@]4(C)CC[C@H](O)C(C)(C)C4CC[C@@]2(C)[C@]1(C)CC3)OC)N(C)C(=O)[C@@H](NC(=O)[C@H](C(C)C)N(C)C)C(C)C (stereo partly drawn) [Compound 18b, 28-Amido-allobetulin-28-N-1′-ethyldiamine-N-2′-Dap-Dil-Val-Dov]	–	–	–	–	–	~10 fold	–	0.31 (≈ 0.287 µM)	0.06 (≈ 0.0556 µM)	0.6 (≈ 0.556 µM)	0.22 (≈ 0.204 µM)	0.09 (≈ 0.0834 µM)	0.21 (≈ 0.195 µM)
